According to US20240299542A1, “NATURAL KILLER CELLS ENGINEERED TO REDUCE OR ELIMINATE CBL-B AND USES THEREOF” (City of Hope, priority 2021, published 2024):

How the values were obtained:
[1] = system: Cbl-b; assay: Cbl-b protein by immunoblot after JAK or AKT inhibitor pretreatment and IL-15/IL-2 activation of primary NK cells; assay type: cell-based, human; settings: 90 min pretreatment at various concentrations, then IL-15 (10 ng/ml) 24 h, vs vehicle control
Protocol: FIGS. 2A-2E depict the results of a study showing that JAK-STAT and AKT pathways mediate upregulation of Cbl-b in NK cells. (FIG. 2A) Primary human NK cells were pretreated with the JAK3 inhibitor CP-690550 and the JAK1/2 inhibitor AZD1480 at various concentrations for 90 min prior to a 24 h activation by IL15 (10 ng/ml). NK cells were then harvested for quantification of Cbl-b protein expression by immunoblot analysis. Data are representative of 6 donors performed in a similar fashion. Densitometric quantification assessing the ratio of the Cbl-b protein to β-actin protein levels for 6 donors is summarized in (FIG. 2B) and (FIG. 2C). […] Data are representative of 5 donors performed in a similar fashion. Densitometric quantification assessing the ratio of the Cbl-b protein levels to β-actin protein levels for 5 donors is summarized in (FIG. 2E). *P<0.05, **P<0.01, ***P<0.001 by One-way ANOVA or Student's two-tailed paired t-test. Data are presented as mean±SEM.
(§1) Immunoblotting. Cells were harvested and suspended in RIPA lysis buffer (Thermo Fisher Scientific) on ice for 20 minutes. Equal amount of protein was resolved by 5-15% Criterion TGX gel (Bio-Rad) and then transferred onto a Nitrocellulose (NC) or PVDF membrane (Thermo Fisher Scientific). The membrane was incubated with a primary antibody at 4° C. overnight and an IRDye secondary antibody (Li-COR Biosciences) for 1 hour at room temperature. The immunoblots were visualized with Odyssey CLx Imager (Li-COR Biosciences). Densitometric analysis was performed to quantify intensity of gel bands with Image J (National Institutes of Health).
(§2) Since IL-15 utilizes select JAK-STAT proteins to initiate cellular activation, we pretreated primary NK cells with the JAK3 inhibitor CP-690550 (22) or the JAK1/2 inhibitor AZD1480 (23) in increasing concentrations prior to IL-15 stimulation then Cbl-b expression level was evaluated. […] As K562 cells were also able to induce expression of Cbl-b in primary human NK cells (FIG. 1B), we repeated the inhibitor experiments under the K562 cell stimulation.

[2] = system: Cbl-b; assay: Cbl-b protein by immunoblot after inhibitor pretreatment and K562 co-culture of primary NK cells; assay type: cell-based, human; settings: 10 uM, 90 min pretreatment, 24 h co-culture with K562 (E/T=10:1), vs vehicle control
Protocol: FIG. 7A Primary NK cells were pretreated with AZD1480 (10 uM), CP-690550 (10 uM) or Afuresertib (10 uM) for 90 min prior to a 24 h cocultured with K562 cells (E/T=10:1). The immunoblot data are representative of 3 donors in a similar fashion. Densitometric quantification assessing the ratio of Cbl-b protein levels to β-actin protein levels for 3 donors is summarized in FIG. 7B. *P<0.05, **P<0.01; ns, not significant. Data are presented as mean±SEM.
as §1, §2

[3] = system: IFN-γ; assay: Intracellular IFN-γ flow cytometry of NK cells pretreated with Mertk inhibitors; assay type: cell-based, human; settings: for percentage of intracellular IFN-γ+ cells: 5 uM, 90 min pretreatment, then IL-15 (10 ng/ml) 24 h; for IFN-γ level lower than control with no inhibitor: in the presence of IL-15
Protocol: (§3) FIGS. 5A-5D depict the results of a study showing that Cbl-b interacts with and regulates phosphorylation of Mertk in primary human NK cells. (FIG. 5A) Representative intracellular flow cytometric analysis of the TAM family receptors expression in primary human NK cells. Summarized data are shown from 6 donors. IgG1 is the isotype for Tyro3 and Axl, while IgG2 for Mertk. (FIG. 5B) The level of Mertk phosphorylation and Cbl-b in Cbl-b siRNA- or Scr siRNA-transduced primary human NK was measured by immunoblot analysis. Data presented are representative of five independent experiments. […] Data presented are representative of 4 donors performed in a similar fashion and are summarized in the panel below the representative flow dot plots. (FIG. 5D) Primary NK cells were pretreated with the Mertk inhibitors UNC2550 or UNC2881 (5 uM) for 90 min prior to 30 min activation by IL-15 (10 ng/ml). Data presented are representative of 4 donors performed in a similar fashion. Scr-scrambled; *P<0.05; ns, not significant. Data presented as mean±SEM.
Flow cytometry. To determine protein cell surface expression via flow cytometry, cells were stained with monoclonal antibodies at room temperature for 20 minutes and washed with FACS buffer prior to analysis using a Fortessa X-20 flow cytometer (BD Biosciences). For IFN-γ intracellular flow cytometric analysis, […] GolgiPlug (BD Biosciences) was added for 4 h before cell harvest; cells were then permeabilized and fixed using a Cytofix/Cytoperm Fixation/Permeabilization Solution Kit (BD Biosciences), followed by analysis with a Fortessa X-20 flow cytometer. Intracellular flow cytometric analysis of Mertk was performed similarly except that GolgiPlug was not added. Data was analyzed by using Flowjo V10 software (Tree Star, Ashland, OR, USA).
The TAM receptor family consists of Tyro3, Axl and Mertk, all of which are expressed in mature mouse NK cells (25) and are molecular substrates for Cbl-b ubiquitylation both in vitro and in vivo (17). To investigate the possible relationship between Cbl-b and the TAM receptor family in primary human NK cells, we detected the expression of the three TAM receptor members in NK cells. […] However, the level of total mertk is low in human NK cells (FIG. 10B), preventing us to characterize the mechanism associated with the p-Mertk regulation by Cbl-b. Next, primary human NK cells were pretreated with or without Mertk inhibitors (UNC2550 or UNC2881), followed by IL-15 stimulation.

[4] = system: p-STAT5; assay: p-STAT5 by immunoblot in IL-15-activated NK cells pretreated with Mertk inhibitors; assay type: cell-based, human; settings: 5 uM, 90 min pretreatment, then IL-15 (10 ng/ml) 30 min, vs no inhibitor
Protocol: as §3, with “(FIG. 5D) Primary NK cells were pretreated with the Mertk inhibitors UNC2550 or UNC2881 (5 uM) for 90 min prior to 30 min activation by IL-15 (10 ng/ml). Data presented are representative of 4 donors performed in a similar fashion. Scr-scrambled; *P<0.05; ns, not significant. Data presented as mean±SEM.” left out
Immunoblotting. […] Densitometric analysis was performed to quantify intensity of gel bands with Image J (National Institutes of Health).
The TAM receptor family consists of Tyro3, Axl and Mertk, all of which are expressed in mature mouse NK cells (25) and are molecular substrates for Cbl-b ubiquitylation both in vitro and in vivo (17). To investigate the possible relationship between Cbl-b and the TAM receptor family in primary human NK cells, we detected the expression of the three TAM receptor members in NK cells. […]

[5] = system: Cbl-b; assay: Cbl-b protein by immunoblot after stimulation of primary human NK cells with cytokines or activating antibody; assay type: cell-based
Protocol: (FIG. 1B) Enriched primary human NK cells were co-cultured with the K562 myeloid leukemia cell line (E/T ratio=10:1) for 24 h followed by immunoblot analysis. Summary data are from three independent experiments. (FIG. 1C) Primary human NK cells were treated with different concentrations of IL-15 for 24 h followed by immunoblot analysis (n=5 donors). (FIG. 1D) Equal numbers of purified CD56^+ human NK cells, CD56^bright NK cells and CD56^dim NK cells were sorted from peripheral blood mononuclear cells isolated by Ficoll, cultured and stimulated with IL-15 (20 ng/ml for 24 h) followed by immunoblot analysis. The data are representative of three independent experiments. Med, medium only; *P<0.05, **P<0.01 by two-tailed unpaired t-test or One-way ANOVA; ns, not significant. Data are presented as mean±SEM.
FIG. 6A Enriched primary human NK cells were cocultured with Molm-13 or MV4-11 leukemia cell lines (E/T ratio=10:1) for 24 h prior to assessment of Cbl-b by immunoblot analysis. […] FIG. 6B Enriched primary human NK cells were cultured overnight with an anti-NKG2D activating antibody (clone 1D11) (10 μg/ml) or mouse IgG (10 μg/ml) as control prior to assessment of Cbl-b by immunoblot analysis. […] Data are shown summarizes four independent experiments. […] Data are shown summarizes five independent experiments. FIG. 6E The expression of Cbl-b was assessed by qRT-PCR after primary human NK cells were incubated with K562 cells (E/T ratio=10:1) for 24 h. Data are shown summarizes five independent experiments. *P<0.05, **P<0.01, compared to the shortest time point. Data are presented as mean±SEM.
as §1
We assessed the expression of Cbl-b protein in primary human NK cells enriched from the blood of healthy donors in response to 24-hour stimulation by different cytokines. […] Since certain tumor cells can trigger NK cell activation, we co-cultured NK cells for 24 h with different tumor cell lines in order to assess this effect on the expression of Cbl-b.

[6] = system: Cbl-b; assay: Cbl-b mRNA by qRT-PCR after IL-15 or IL-2 treatment of primary human NK cells; assay type: cell-based; settings: IL-15 (10 ng/ml) or IL-2 (150 IU/ml)

## C[C@@H]1CCN(C(=O)CC#N)C[C@@H]1N(C)c1ncnc2[nH]ccc12 [CP-690550]
[1]
  expression of Cbl-b protein after inhibitor pretreatment: significant decrease
[2]
  Cbl-b expression after inhibitor pretreatment under K562 stimulation: only the AKT1/2/3 inhibitor Afuresertib rather than either of the two JAK inhibitors

## CCCCNc1ncc(C(=O)NCc2ccc(-n3ccnc3)cc2)c(NC2CCC(O)CC2)n1 (stereo not drawn) [UNC2881]
[3]
  percentage of intracellular IFN-γ+ cells: 5.49%
  IFN-γ level lower than control with no inhibitor: approximately 3 fold
[4]
  level of p-STAT5: decreased

## IL-15: Recombinant human IL-15 protein obtained from National Institutes of Health
[5]; different concentrations of IL-15, 24 h
  dose response of Cbl-b protein: did not find evidence of a dose response change
[5]; primary human NK cells, 24 h cytokine stimulation, compared to resting NK cells without cytokines
  expression of Cbl-b protein (ratio to β-actin): induced an increase in the expression of Cbl-b
[6]; 24 h
  upregulation of Cbl-b mRNA at 24 h post stimulation: sustained
[6]; compared to unstimulated NK cells
  time of peak Cbl-b mRNA: 4 h

## UNC2550
[3]
  percentage of intracellular IFN-γ+ cells: 5.49%
  IFN-γ level lower than control with no inhibitor: approximately 3 fold
[4]
  level of p-STAT5: decreased
